Assay results published in patent publication US7692038B2, “Crystalline forms” (Pfizer, Inc., priority 2006, dated 2010).

Assays:
[1] = Hygroscopicity by dynamic vapour sorption (DVS), water sorption and desorption; assay type: physicochemical; conditions: 30° C.
Procedure: Hygroscopicity was assessed for forms I and II using dynamic vapour sorption (DVS). The samples were characterised using a Surface Measurement Systems Ltd, dynamic vapour sorption equipment, model DVS-1. The analysis was conducted at 30° C. with a nitrogen gas flow of 200 cc/min. Water sorption and desorption were determined in the range 0 to 90% relative humidity (RH) using 15% RH intervals. Exposure was for a minimum of two hours at each humidity, or until the rate of weight change was less than 0.0005%/minute (averaged over 10 minutes). Sample weights were in the range 23-36 mg. The samples were weighed using a CAHN D-200, seven place digital recording balance, which is an integral part of the equipment. The results are tabulated below in Tables 6 and 7 and plotted in FIGS. 15 and 16.

[2] = Relative thermodynamic stability of polymorphs (slurry conversion); assay type: physicochemical; conditions: ambient temperature
Procedure: The crystalline forms of the invention may be prepared by the processes described below. The skilled person will understand that the preparation of particular polymorphic forms of a compound can sometimes be problematic, and that small changes in reaction conditions can sometimes result in an unexpected product. In particular, the presence of seeds in the atmosphere under which the experiment is conducted can have a decisive outcome on the result. The processes described below, however, are generally reliable. […] The form I polymorph is the more kinetically favoured product at ambient temperature and its formation is encouraged by rapid crystallisation techniques such as rapid cooling. Seeding with the desired product will obviously increase success in these preparations. Preparation of form I material is particularly encouraged by the use of a form I seed which contains a mixture of diastereomers due to epimerisation at the modified aspartate residue.
Pure form II may be prepared by slurrying a mixture of forms I and II in acetonitrile at room temperature until full conversion has taken place (typically a few days, e.g. 3 days). The product is then filtered off and dried (e.g. in a vacuum oven). The following procedures are illustrative.
A 40:60 mixture (by weight) of forms I and II was slurried in acetonitrile and left for three days. […]

Structure (SMILES): C[C@H](NC(=O)C(=O)Nc1ccccc1C(C)(C)C)C(=O)N[C@@H](CC(=O)O)C(=O)COc1c(F)c(F)cc(F)c1F [Form I, (3S)-3-[N—(N′-(2-tert-butylphenyl)oxamyl)alaninyl]amino-5-(2′,3′,5′,6′-tetrafluorophenoxy)-4-oxopentanoic acid]
- Water Sorption (% w/dry w) Desorption ([1]; 15% RH): 0.015 % w/dry w
- Water Sorption (% w/dry w) Sorption ([1]; 15% RH): 0.018 % w/dry w
- Water Sorption (% w/dry w) Desorption ([1]; 30% RH): 0.025 % w/dry w
- Water Sorption (% w/dry w) Sorption ([1]; 30% RH): 0.028 % w/dry w
- Water Sorption (% w/dry w) Desorption ([1]; 45% RH): 0.037 % w/dry w
- Water Sorption (% w/dry w) Sorption ([1]; 45% RH): 0.049 % w/dry w
- Water Sorption (% w/dry w) Desorption ([1]; 60% RH): 0.055 % w/dry w
- Water Sorption (% w/dry w) Sorption ([1]; 60% RH): 0.072 % w/dry w
- Water Sorption (% w/dry w) Desorption ([1]; 75% RH): 0.105 % w/dry w
- Water Sorption (% w/dry w) Sorption ([1]; 75% RH): 0.110 % w/dry w
- Water Sorption (% w/dry w) Desorption ([1]; 90% RH): 0.208 % w/dry w
- Water Sorption (% w/dry w) Sorption ([1]; 90% RH): 0.208 % w/dry w

Structure (SMILES): C[C@H](NC(=O)C(=O)Nc1ccccc1C(C)(C)C)C(=O)N[C@@H](CC(=O)O)C(=O)COc1c(F)c(F)cc(F)c1F [Form II, (3S)-3-[N—(N′-(2-tert-butylphenyl)oxamyl)alaninyl]amino-5-(2′,3′,5′,6′-tetrafluorophenoxy)-4-oxopentanoic acid]
- Water Sorption (% w/dry w) Desorption ([1]; 15% RH): 0.009 % w/dry w
- Water Sorption (% w/dry w) Sorption ([1]; 15% RH): 0.007 % w/dry w
- Water Sorption (% w/dry w) Desorption ([1]; 30% RH): 0.015 % w/dry w
- Water Sorption (% w/dry w) Sorption ([1]; 30% RH): 0.014 % w/dry w
- Water Sorption (% w/dry w) Desorption ([1]; 45% RH): 0.021 % w/dry w
- Water Sorption (% w/dry w) Sorption ([1]; 45% RH): 0.020 % w/dry w
- Water Sorption (% w/dry w) Desorption ([1]; 60% RH): 0.031 % w/dry w
- Water Sorption (% w/dry w) Sorption ([1]; 60% RH): 0.029 % w/dry w
- Water Sorption (% w/dry w) Desorption ([1]; 75% RH): 0.044 % w/dry w
- Water Sorption (% w/dry w) Sorption ([1]; 75% RH): 0.042 % w/dry w
- Water Sorption (% w/dry w) Desorption ([1]; 90% RH): 0.057 % w/dry w
- Water Sorption (% w/dry w) Sorption ([1]; 90% RH): 0.057 % w/dry w
- Thermodynamic stability of the polymorph [2]: most thermodynamically stable
